In US20060110767A1, “Genotyping assay to predict cytochrome P4503A5 exression” (priority 2001, published 2006):
Where two headings read alike, the source gives them in different places.

Tests used:
CYP3A4 [1] = target: T1, CYP3A4 (Homo sapiens, UniProt P08684); settings: cited from earlier work
CYP3A5 [2] = target: T2, CYP3A5 (Homo sapiens, UniProt P20815); settings: cited from earlier work
CYP3A7 = CYP3A7 (Homo sapiens, UniProt P24462); settings: cited from earlier work
CYP3A = settings: cited from earlier work
CYP3A5 [3] = target: T2, CYP3A5; settings: cited from earlier work; remark: listed apart in the source
CYP4503A enzymes = settings: result in words (Wandel et al.); cited from earlier work
CYP4503A5 = CYP4503A5 (Homo sapiens, UniProt P20815); settings: cited from earlier work
Sequence of CYP4503A5 (P20815 whole entry): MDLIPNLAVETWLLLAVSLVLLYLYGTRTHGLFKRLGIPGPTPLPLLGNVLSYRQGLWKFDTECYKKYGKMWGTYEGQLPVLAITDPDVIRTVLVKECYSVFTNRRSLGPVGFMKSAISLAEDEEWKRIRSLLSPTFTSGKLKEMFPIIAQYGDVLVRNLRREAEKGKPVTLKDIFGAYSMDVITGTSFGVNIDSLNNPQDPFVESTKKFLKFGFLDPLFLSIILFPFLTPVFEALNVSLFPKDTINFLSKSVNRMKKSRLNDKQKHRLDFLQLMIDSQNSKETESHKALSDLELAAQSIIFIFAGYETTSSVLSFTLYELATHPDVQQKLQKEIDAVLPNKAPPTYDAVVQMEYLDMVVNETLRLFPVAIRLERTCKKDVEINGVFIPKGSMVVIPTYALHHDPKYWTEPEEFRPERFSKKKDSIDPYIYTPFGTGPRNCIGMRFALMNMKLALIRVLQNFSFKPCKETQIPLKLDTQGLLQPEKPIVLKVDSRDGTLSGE

CYP3A4 [4] = target: T1, CYP3A4; settings: pH 7.4
Procedure: (§1) Midazolam, ^15N3-midazolam, 1′-OH MDZ and 4-OH MDZ were provided by Roche Laboratories. All incubations were performed in duplicate in solutions containing 0.1 M potassium phosphate (pH 7.4) and 20 to 100 μg human liver microsomes or 50 to 100 μg intestinal homogenates or 10 pmol of recombinant CYP3A4 or CYP3A5 (Gentest). Midazolam (final concentration, 8 μM) was added to the diluted tissue preparations, and the mixtures were preincubated at 37° C. for 5 min. We added NADPH (final concentration, 1 mM) to initiate the reaction. Incubation of human liver microsomes lasted for 2 min; incubation of recombinant CYP3A and intestinal samples lasted for 4 min. Reactions were terminated by the addition of 1 mL of ice-cold 0.1 M Na2CO3, pH ˜11. We used NCI GC-MS to measure the quantities of extracted 1′-OH MDZ and 4-OH MDZ (ref. 14). Reaction velocities and product ratios are presented as mean±SD. Statistical comparisons of mean data for different genotypes were performed by using a 2-sided, unpaired t test with unequal variances

CYP3A5 [5] = target: T2, CYP3A5; settings: pH 7.4
Procedure: as §1

[6] = result in words (Wrighton et al.; Gillam et al.)

T1 sequence (P08684 whole entry): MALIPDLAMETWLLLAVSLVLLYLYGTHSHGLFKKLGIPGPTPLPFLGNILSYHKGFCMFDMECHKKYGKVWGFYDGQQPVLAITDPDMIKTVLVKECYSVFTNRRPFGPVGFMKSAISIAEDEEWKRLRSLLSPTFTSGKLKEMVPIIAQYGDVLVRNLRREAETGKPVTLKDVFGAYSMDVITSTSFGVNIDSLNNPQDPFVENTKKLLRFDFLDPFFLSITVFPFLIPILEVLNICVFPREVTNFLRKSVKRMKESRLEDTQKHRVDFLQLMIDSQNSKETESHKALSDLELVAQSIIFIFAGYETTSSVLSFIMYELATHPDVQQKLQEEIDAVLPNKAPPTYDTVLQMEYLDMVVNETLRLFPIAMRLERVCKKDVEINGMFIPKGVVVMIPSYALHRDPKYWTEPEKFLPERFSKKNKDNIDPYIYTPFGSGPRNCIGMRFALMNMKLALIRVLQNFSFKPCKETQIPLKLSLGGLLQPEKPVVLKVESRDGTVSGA
T2 sequence (P20815 whole entry): as the sequence (P20815 whole entry) above
Sequence of CYP3A7 (P24462 whole entry): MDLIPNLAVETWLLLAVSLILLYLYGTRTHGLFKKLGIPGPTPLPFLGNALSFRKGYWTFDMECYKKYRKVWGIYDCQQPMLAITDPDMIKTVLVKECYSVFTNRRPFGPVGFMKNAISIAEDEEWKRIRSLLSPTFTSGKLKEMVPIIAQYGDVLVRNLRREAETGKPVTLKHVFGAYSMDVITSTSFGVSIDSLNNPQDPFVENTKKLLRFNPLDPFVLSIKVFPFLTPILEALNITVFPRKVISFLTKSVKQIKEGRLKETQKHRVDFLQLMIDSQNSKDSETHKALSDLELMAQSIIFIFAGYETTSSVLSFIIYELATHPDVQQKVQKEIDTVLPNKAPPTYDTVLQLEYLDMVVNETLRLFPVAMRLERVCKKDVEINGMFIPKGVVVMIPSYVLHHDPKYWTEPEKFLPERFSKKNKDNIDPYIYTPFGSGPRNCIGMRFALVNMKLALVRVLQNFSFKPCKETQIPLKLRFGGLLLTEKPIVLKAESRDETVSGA

For NS(=O)(=O)Cc1noc2ccccc12 [Zonisamide], the “CYP isoforms expressed in cells 3A4” value (CYP3A4 [1]) is listed as “+++”, the “CYP isoforms expressed in cells 3A5” value (CYP3A5 [2]) is listed as “+” and the “CYP isoforms expressed in cells 3A7” value (CYP3A7) is listed as “++”.

For CN1C(=O)CN=C(c2ccccc2)c2cc(Cl)ccc21 [Diazepam], the “Catalytic activity in human liver microsomes Child (%)” value (CYP3A) is listed as 140 (3-12 mo) %, the “Catalytic activity in human liver microsomes adult (%)” value (CYP3A) is listed as 100% and the “Catalytic activity in human liver microsomes fetus (%)” value (CYP3A) is listed as less than 5%.

In the case of C#C[C@]1(O)CC[C@H]2[C@@H]3CCc4cc(O)ccc4[C@H]3CC[C@@]21C [17α-ethinyl-estradiol], the “CYP3A5 catalytic activity towards substrate” value (CYP3A5 [3]; [6]) is given as “No CYP3A5 catalytic activity”.

For CC(=O)[C@H]1CC[C@H]2[C@@H]3CCC4=CC(=O)CC[C@]4(C)[C@H]3CC[C@]12C [Progesterone], the “CYP isoforms expressed in cells 3A4” value (CYP3A4 [1]) is given as “+++” and the “CYP isoforms expressed in cells 3A5” value (CYP3A5 [2]; 6β-hydroxylation) is given as “++”.

For C[C@]12CCC(=O)CC1CC[C@@H]1[C@@H]2CC[C@]2(C)C(=O)CC[C@@H]12 (some centres unmarked) [Androstanedione], the “CYP isoforms expressed in cells 3A4” value (CYP3A4 [1]) is given as “+++”, the “CYP isoforms expressed in cells 3A5” value (CYP3A5 [2]) is given as “++” and the “CYP isoforms expressed in cells 3A7” value (CYP3A7) is given as “++”.

For CCOC(=O)C1=C(C)NC(C)=C(C(=O)OC)C1c1cccc([N+](=O)[O-])c1 (centres unmarked) [nitrendipine], the “effect on liver microsomal hydroxylation of midazolam” value (CYP4503A enzymes) is listed as “inhibits”.

In the case of C[C@]12CCC(=O)C=C1CC[C@@H]1[C@@H]2[C@@H](O)C[C@@]2(C)[C@H]1CC[C@]2(O)C(=O)CO [Cortisol], the “CYP isoforms expressed in cells 3A4” value (CYP3A4 [1]) is listed as “+++”, the “CYP isoforms expressed in cells 3A5” value (CYP3A5 [2]) is listed as “++” and the “CYP isoforms expressed in cells 3A7” value (CYP3A7) is listed as “−”.

In the case of aflatoxins, the “CYP3A5 catalytic activity towards substrate” value (CYP3A5 [3]) is listed as “No CYP3A5 catalytic activity”.

In the case of Cc1ncc2n1-c1ccc(Cl)cc1C(c1ccccc1F)=NC2 [Midazolam], the “formation rate of 1-hydroxy-midazolam for CYP3A5 versus CYP3A4” value (CYP3A5 [3]) is listed as “considerably higher”, the “rate of formation of 4-hydroxy-midazolam with CYP3A4 and CYP3A5” value (CYP3A5 [3]) is listed as “similar” and the “alpha- to 4-hydroxylation of midazolam, CYP4503A5 versus CYP4503A3 or CYP4503A4” value (CYP4503A5) is listed as “far greater”. The “increase of midazolam metabolism with CYP4503A5 expression” value (CYP4503A5) was 2.7, the “ratio of 1′-OH MDZ to 4-OH MDZ” value (CYP3A4 [4]) was 5.5 and the “ratio of 1′-OH MDZ to 4-OH MDZ” value (CYP3A5 [5]) was 16.1. For the same compound, the “CYP isoforms expressed in cells 3A5” value (CYP3A5 [2]) was “+++”.

For COc1ccc2c(c1)[C@]13CCCC[C@@H]1[C@H](C2)N(C)CC3 [Dextromethorphan], the “Catalytic activity in human liver microsomes adult (%)” value (CYP3A) is given as 100% and the “Catalytic activity in human liver microsomes fetus (%)” value (CYP3A) is given as 30%.

For aflatoxin B1, the “8,9-epoxidation step (activation step) by CYP3A5” value (CYP3A5 [3]) is given as “efficiently catalyzes” and the “rate of 3α-hydroxylation (inactivation step) by CYP3A5 relative to CYP3A4” value (CYP3A5 [3]) is given as “approximately 1%”.

For C[C@]12CC[C@H]3[C@@H](CCC4=CC(=O)CC[C@@]43C)[C@@H]1CC[C@@H]2O [Testosterone], the “CYP isoforms expressed in cells 3A4” value (CYP3A4 [1]) is listed as “+++”, the “CYP isoforms expressed in cells 3A5” value (CYP3A5 [2]) is listed as “++” and the “Catalytic activity in human liver microsomes newborn (%)” value (CYP3A) is listed as 30-40%.

In the case of NC(=O)N1c2ccccc2C=Cc2ccccc21 [Carbamazepine], the “CYP isoforms expressed in cells 3A4” value (CYP3A4 [1]) is given as “+++”, the “CYP isoforms expressed in cells 3A5” value (CYP3A5 [2]) is given as “++” and the “CYP isoforms expressed in cells 3A7” value (CYP3A7) is given as “+”. For the same compound, the “Catalytic activity in human liver microsomes adult” value (CYP3A; adult, carbamazepine metabolism, result in words) was “Present” and the “Catalytic activity in human liver microsomes fetus” value (CYP3A; fetus, CBZ-E formation (?), result in words) was “CBZ-E”.

In the case of CCOc1ccc2c3c1O[C@H]1[C@@H](O)C=C[C@H]4[C@@H](C2)N(C)CC[C@@]341 [Ethylmorphine], the “CYP3A5 catalytic activity towards substrate” value (CYP3A5 [3]; [6]) is given as “considerable catalytic activity”, the “CYP isoforms expressed in cells 3A4” value (CYP3A4 [1]) is given as “+” and the “CYP isoforms expressed in cells 3A5” value (CYP3A5 [2]) is given as “++”. The “Catalytic activity in human liver microsomes adult (%)” value (CYP3A; adult, relative to adult rate = 100%) was 100% and the “Catalytic activity in human liver microsomes fetus (%)” value (CYP3A; fetus, relative to adult rate = 100%) was 100%.
